32 compounds from PubChem BioAssay (NCI) can be followed below.

What all share (assay): NCI tumour cell line growth inhibition, 48 h
The test system of assay [1] is HCT-15 colon.
For assay [2], the system named is M14 melanoma.
For assay [3], the system named is OVCAR-3 ovarian.
In assay [4] the test system is OVCAR-4 ovarian.
Assay [5] concerns RXF 393 renal.
The subject of assay [6] is SN12C renal.
In assay [7] the test system is T-47D breast.
The subject of assay [8] is UACC-62 melanoma.
Assay [9] has as its system EKVX NSCLC.
The test system of assay [10] is TK-10 renal.

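These data come from cells grown in 96-well plates and exposed to compound for 48 hours at five concentrations. TGI: concentration producing complete growth inhibition.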 Where only a bound is given, the exact number is not on record here.

For the compound `COc1cc2c(cc1OC)C(=O)/C(=C/c1cc(OC)c(OC)c(OC)c1)C2`, the TGI in assay [1], in assay [2], in assay [3], in assay [4], in assay [5] and in [6] was > 100 µM throughout. Also, the TGI in assay [7] and in assay [8] was > 100 µM each time.
Turning to `O=C(Nc1cccc2c1[nH]c1c(-c3ccccc3)nccc12)c1ccccc1[N+](=O)[O-]`, the TGI is > 100 µM in assay [9]; 41.2 µM in assay [1]; > 100 µM in [2]; > 100 µM in assay [4]; 90.2 µM in assay [5]; > 100 µM in assay [6]. In addition, the TGI in assay [10] was > 100 µM.
For the compound `COC(=O)[C@H](Cc1ccc(OC(C)(C)C)cc1)N[C@H](C)C(=O)N[C@@H](Cc1ccccc1)C(=O)OCc1ccccc1`, the TGI in assay [9], in assay [1], in assay [2], in assay [3], in assay [4] and in [5] was > 100 µM in each case. Moreover, the TGI in assay [6], in assay [10] and in assay [8] was > 100 µM each time.
As for `O=C(NCCNCCCNC(=O)c1cc(-c2ccccc2)nc2ccccc12)c1cccc(OCc2ccccc2)c1OCc1ccccc1`, the TGI in assay [9] is 3.1 µM; in assay [1], 3.25 µM; in assay [2], 3.1 µM; in [3], 3.36 µM; in assay [4], 3.03 µM; in [6] it was 3.24 µM. Moreover, the figures for the TGI in [7], in assay [10] and in assay [8] were 4.2 µM, 3.17 µM and 3.61 µM, respectively.
For the compound `COc1ccccc1/C=C1\NC(=S)N(/C=C2\C(=O)Oc3ccccc3C2=O)C1=O`, the TGI in [9], in assay [1], in assay [2], in assay [3], in [4] and in assay [5] was > 100 µM each time. Also, the TGI in assay [6], in [10] and in [8] was > 100 µM throughout.
With `C1CC[C@H]2SSC3CCCC[C@H]3SSC2C1` (stereo partly specified), the TGI in [9], in assay [1], in assay [2], in assay [3], in [4] and in [6] was > 100 µM in each case. The TGI in [7], in assay [10] and in assay [8] was > 100 µM throughout.
Turning to `O=C(CNC(c1ccccc1)(c1ccccc1)c1ccccc1)NC1CCCCC1NC(=O)CNC(c1ccccc1)(c1ccccc1)c1ccccc1` (stereo unspecified), the TGI was 47.6 µM in [9]; > 100 µM in assay [1]; > 100 µM in [3]; > 100 µM in assay [4]; > 100 µM in assay [6]; > 100 µM in [7]. Further, the TGI in [10] and in [8] was > 100 µM in each case.
Regarding `C=CCOC(=O)C1=C(CCC[C@@H](C)O[Si](C)(C)C(C)(C)C)N=C(N)N2[C@H](CCO)CC[C@@H]12`, the TGI in assay [1] amounted to 32.5 µM; in assay [2] it was 27.6 µM; in [3], 23.5 µM; in [4], 23.2 µM; in assay [6], 31.7 µM; in assay [7], 28.9 µM. For the same compound, the TGI amounted to 34.3 µM in [10] and 33 µM in [8].
As to `CCCCCC/C=C1\CCC(CN2CCOCC2)C1=O` (stereo unspecified), the TGI in assay [9] amounted to 19.1 µM; in assay [1] it was 25.9 µM; in [2], 28.1 µM; in assay [3] it was 32.7 µM; in assay [4], 38.8 µM; in [6], 33.4 µM. In addition, the results for the TGI in assay [10] and in assay [8] were 26.4 µM and 32.1 µM, respectively.
Regarding `Nc1nc2c(ncn2Cc2ccccc2CO)c(=O)[nH]1`, the TGI in assay [9], in [1], in assay [2], in assay [3], in assay [4] and in [6] was > 100 µM in each case. Besides, the TGI in assay [7], in assay [10] and in assay [8] was > 100 µM in each case.
As to `COc1cccc(NC(=O)C(=O)C(C(=O)c2ccccc2F)C2OC(=O)c3ccccc32)c1` (stereo unspecified), the TGI is > 100 µM in assay [9]; > 100 µM in assay [1]; > 100 µM in [2]; > 100 µM in [4]; 63.6 µM in [5]; > 100 µM in assay [6]. Also, the TGI in assay [10] and in assay [8] was > 100 µM each time.
Regarding `COC(=O)CCC(C)C1CCC2C3C(C[C@H](OC(C)=O)[C@]12C)[C@@]1(C)CCC2(C[C@H]1C[C@H]3OC(C)=O)OOC1(CC[C@]3(C)C4C[C@H](OC(C)=O)[C@]5(C)C(C(C)CCC(=O)OC)CCC5C4[C@H](OC(C)=O)C[C@@H]3C1)OO2` (stereo partly specified), the TGI in assay [9], in assay [1], in assay [2], in [3], in assay [4] and in assay [5] was > 100 µM in each case. Further, the TGI in assay [6] and in [10] was > 100 µM in each case.
For `CC1C(OC2O[C@@H]3O[C@@]4(C)CC[C@H]5[C@H](C)CC[C@@H](C2C)[C@@]35O4)O[C@@H]2O[C@@]3(C)CC[C@H]4[C@H](C)CC[C@@H]1[C@@]24O3` (stereo partly specified), the TGI in assay [9], in [1], in assay [2], in assay [3], in assay [4] and in assay [6] was > 50 µM in each case. For the same compound, the TGI in [7], in assay [10] and in assay [8] was > 50 µM throughout.
For the compound `CC(C)(CCCCC(C)(C)[N+](C)(C)C)[N+](C)(C)C`, the TGI in [9], in [1], in [2], in assay [4], in assay [6] and in [7] was > 100 µM each time. The TGI in [10] is > 100 µM.
Take `O=C(OCc1ccccc1)N(CCCCN(CCCNCc1ccccc1)C(=O)OCc1ccccc1)CCCNCc1ccccc1`: the TGI worked out at 2.94 µM in assay [9]; 1.17 µM in [1]; 0.886 µM in [6]; 3.57 µM in assay [7]; 3.43 µM in [10]; 3.19 µM in assay [8].
With `C/C(=N\Nc1nc2cccnc2s1)c1ccccn1`, the TGI in assay [9] is 5.73 µM; in [1], 21.5 µM; in [4], 29.5 µM; in assay [5], 19.9 µM; in [6], > 100 µM.
As to `O=C1C(Cl)N(c2cccc([N+](=O)[O-])c2)C1c1c[nH]c2ccccc12` (stereo unspecified), the TGI is 96.8 µM in assay [9]; 33 µM in [2]; 54.8 µM in assay [3]; 33.7 µM in [4]; 27 µM in assay [5]; > 100 µM in [6]. In addition, the results for the TGI in assay [10] and in assay [8] were 59.4 µM and 32.4 µM, respectively.
Take `CSc1nc2c(ncn2C2OCC(O)C(O)C2O)c(=O)n1C` (stereo unspecified): the TGI in [9], in [1], in [3], in assay [4], in assay [5] and in [6] was > 100 µM each time. For the same compound, in assay [8], the TGI was > 100 µM.
For `COC(=O)C(C/C=C(\C)c1ccc(Cl)cc1)C(C)=O` (stereo unspecified), the TGI in [9] was > 100 µM; in assay [1], > 100 µM; in [3], > 100 µM; in [4], > 100 µM; in assay [5], > 95.9 µM; in assay [6], > 100 µM. In addition, the TGI in assay [8] was > 100 µM.
On to `O=c1cn[nH]c(=S)n1/N=C/c1c[nH]c2ccccc12`, for which the TGI in [9], in [1], in assay [2], in assay [3], in assay [4] and in assay [8] was > 100 µM in each case.
Take `OCCOc1ccccc2cccc1-2`: the TGI in assay [9], in assay [1], in [2], in assay [3], in [4] and in assay [6] was > 100 µM throughout. Further, the TGI in assay [7], in assay [10] and in assay [8] was > 100 µM throughout.
With `CN1CN(c2ccccc2)C2(CCN(CCC3COc4ccccc4O3)CC2)C1=O` (stereo unspecified), the TGI in assay [9] is 51.4 µM; in assay [1], > 100 µM; in [2] it was 42 µM; in [3], 48.7 µM; in assay [5] it was > 100 µM; in assay [6], 83.9 µM. Further, the TGI in [7] stood at 62.3 µM; in assay [10], 48.2 µM; in assay [8], 91.6 µM.
In the case of `CC(C)(C)C1=CC(=C2C(=O)C(=O)c3ccccc3C2=O)C=C(C(C)(C)C)C1=O`, the TGI in assay [9], in assay [1], in [2], in [3], in assay [6] and in assay [10] was > 100 µM throughout. Also, the TGI in [8] was > 100 µM.
On to `CC(=O)NC(Cc1ccsc1)C(=O)O` (stereo unspecified), for which the TGI in [9], in assay [1], in assay [3], in assay [4], in [5] and in assay [6] was > 100 µM in each case. The TGI in assay [8] is > 100 µM.
For `CC(=O)Nc1nnc(S(C)(=O)=O)s1`, the TGI in [9], in assay [1], in assay [2], in assay [3], in [5] and in assay [6] was > 100 µM each time. In assay [10], the TGI was > 100 µM.
Consider `O=C(O)C12CCCCC1CCCC2` (stereo unspecified), for which the TGI in [9], in [1], in assay [2], in assay [3], in assay [4] and in [6] was > 100 µM throughout. The TGI in assay [10] and in [8] was > 100 µM in each case.
`CSc1ncc2c(n1)sc1c(=O)n(-c3ccccc3)cnc12`: the TGI in [1], in assay [2], in assay [3], in assay [4], in assay [5] and in [6] was > 100 µM throughout. Moreover, the TGI in [7], in assay [10] and in [8] was > 100 µM each time.
With `CCOP(=O)(OCC)/C(C#N)=C/c1cnc[nH]1`, the TGI in assay [9], in assay [1], in assay [2], in assay [3], in assay [4] and in assay [5] was > 100 µM throughout. In addition, the TGI in assay [6], in assay [10] and in assay [8] was > 100 µM throughout.
As to `Cn1c(=O)sc2cc(C(=S)N3CCC(Cc4ccccc4)CC3)ccc21`, the TGI in assay [9], in [1], in assay [2], in [3], in assay [5] and in assay [6] was > 100 µM throughout. The TGI in assay [10] and in assay [8] was > 100 µM throughout.
On to `COc1cc(C2C(Cl)C(=O)N2NC(=O)c2ccc(N)cc2)cc(Br)c1O` (stereo unspecified), for which the TGI was determined as 31 µM in [9]; 28.8 µM in [1]; 29.2 µM in [2]; 20.8 µM in assay [3]; 35.1 µM in [4]; 33.4 µM in [6]. Moreover, the TGI in [10] came to 32.5 µM; in assay [8], 30.4 µM.
For `O=Cc1ccc(CCl)cc1`, the TGI in assay [9] is > 100 µM; in assay [1], 31.9 µM; in assay [2] it was 33.4 µM; in assay [3], 34.9 µM; in [5] it was 31 µM; in assay [10], 45.5 µM. In assay [8], this compound had a TGI of 27.3 µM.
Turning to `Cc1c2ccncc2c(C)c2c1[nH]c1ccc(OCC(F)(F)F)cc12`, the TGI is 3.09 µM in assay [9]; 2.56 µM in [1]; 3.39 µM in assay [2]; 3.29 µM in [3]; 3.48 µM in assay [4]; 3.46 µM in assay [5]. The TGI is 2.78 µM in assay [6] and 3.58 µM in [10].
